# Reference: US12629375B2, “Compounds with anti-tumor activity against cancer cells bearing HER2 exon 21 insertions” (Board of Regents, The University of Texas System, priority 2019, dated 2026)
# Tests used:
# [1] = tested on: MCF10A cells expressing HER2 G776del insVC; test: MCF10A cell viability, HER2 G776del insVC; format: cell-based; conditions: Homo sapiens, MCF-10A, 72 hours
# Description: (§1) Cell Viability Assay and IC50 Estimation: Cell viability was determined using the Cell Titer Glo assay (Promega) as previously described (Robichaux et al., 2018). Briefly, 2000-3000 cells per well were plated in 384-well plates (Greiner Bio-One) in technical triplicate. Cells were treated with seven different concentrations of tyrosine kinase inhibitors or vehicle alone at a final volume of 40 μL per well. After 3 days, 11μL of Cell Titer Glo was added to each well. Plates were shaken for 15 minutes, and bioluminescence was determined using a FLUOstar OPTIMA multi-mode micro-plate reader (BMG LABTECH). Bioluminescence values were normalized to DMSO treated cells, and normalized values were plotted in GraphPad Prism using non-linear regression fit to normalized data with a variable slope. IC50 values were calculated by GraphPad Prism at 50% inhibition.
# (§2) Human Cell lines: MCF10A cells were purchased from ATCC and were cultured in DMEM/F12 media supplemented with 1% penicillin/streptomycin, 5% horse serum (sigma), 20 ng/ml EGF, […] hydrocortisone, and 10 μg/ml insulin. Stable cell lines were created by retroviral transduction, and retroviruses were generated by transfecting pBabe-Puro based vectors summarized in Table 1 (Addgene and Bioinnovatise) into Phoenix 293T-ampho cells (Orbigen) using Lipofectamine 2000 (Invitrogen). […]
# [2] = tested on: cell surface HER2 on MCF10A cells expressing HER2 mutations; test: FACS of cell surface HER2 expression; format: cell-based, human; conditions: 10 nM, 24 hours, average of MCF10A HER2 mutant lines
# Description: FACS: MCF10A cells overexpressing HER2 mutations were plated overnight in a 6-well plate, then treated with 10 nM poziotinib. After 24 hours, cells were washed twice with PBS, and trypsinized. Cells were then resuspended in 0.5% FBS in PBS, and stained with anti-HER2-FITC antibody from Biolegend (#324404) for 45 minutes on ice. Cells were washed with 0.5% FBS in PBS twice, and analyzed by flow cytometry. IgG and unstained controls were used for gating.
# [3] = tested on: HER2 Y772dupYVMA NSCLC PDX; test: HER2 Y772dupYVMA NSCLC PDX model; format: in vivo, NSG mice
# Description: Y772dupYVMA PDX mice were purchased from Jax Labs (Model #TM01446). Fragments from tumors expressing HER2 Y772dupYVMA were inoculated into 5- to 6-week old female NSG mice (Jax Labs #005557). Mice were measured three times per week, and when tumors reached a volume of 200-300 mm^3 mice were randomized into four treatment groups: vehicle control (0.5% Methylcellulose, 0.05% Tween-80 in dH2O), 2.5 mg/kg poziotinib, 10 mg/kg T-DM1, or combination of 2.5 mg/kg poziotinib and 10 mg/kg T-DM1. Tumor volumes and body weight were measured three times per week. Mice treated with 2.5 mg/kg poziotinib received drug orally Monday-Friday (5 days per week). Mice treated with 10 mg/kg T-DM1 received one intravenous (IV) dose of T-DM1 on the day of randomization. Mice treated with combination poziotinib and T-DM1 received one IV dose of T-DM1 and began 2.5 mg/kg poziotinib five days per week, 3 days after the dose of T-DM1. Mice received a holiday from dosing if the mouse dropped in body weight by greater than 10% or if body weight dropped below 20 grams. Progression free survival was defined as tumor doubling from best response for two consecutive measurements. Complete regression was defined as greater than 95% reduction in tumor burden, and for mice with complete regression, tumor doubling was defined greater than 75 mm^3 for more than two consecutive measurements. Experiments were completed in agreement with Good Animal Practices and with approval from MD Anderson Cancer Center Institutional Animal Care and Use Committee (Houston, TX).
# [4] = tested on: CW-2 colorectal cell xenograft (HER2 L755S); test: CW-2 xenograft mouse model; format: in vivo, nu/nu nude mice; conditions: day 21, 5 mg/kg, 5 days/week
# Description: In vivo xenograft studies: CW-2 cell line xenografts were created by injecting 1×10^6 cells in 50% matrigel into 6 week old female nu/nu nude mice. When tumors reached 350 mm^3 mice were randomized into 4 groups: 20 mg/kg afatinib, 5 mg/kg poziotinib, 30 mg/kg neratinib, or vehicle control (0.5% Methylcellulose, 2% Tween-80 in dH2O). Tumor volumes were measured three times per week. Mice received drug Monday-Friday (5 days per week), but began dosing on Wednesday allowing for a 2 day holiday after the first 3 days of dosing.
# [5] = tested on: MCF10A cells expressing HER2 Y772dupYVMA; test: MCF10A cell viability, HER2 Y772dupYVMA; format: cell-based; conditions: Homo sapiens, MCF-10A, 72 hours
# Description: as §1, §2
# [6] = tested on: MCF10A HER2 mutant cell lines; test: MCF10A cell viability, HER2 exon 20 mutant cell lines together (average, selectivity vs HER2 WT, T-DM1 combination); format: cell-based, human
# Description: as §1, with “Briefly,” for “Cell Viability Assay and IC50 Estimation: Cell viability was determined using the Cell Titer Glo assay (Promega) as previously described (Robichaux et al., 2018). Briefly,”, “slope.” for “slope. IC50 values were calculated by GraphPad Prism at 50% inhibition.”
# Human Cell lines: MCF10A cells were purchased from ATCC and were cultured in DMEM/F12 media supplemented with 1% penicillin/streptomycin, 5% horse serum (sigma), 20 ng/ml EGF, […] hydrocortisone, and 10 μg/ml insulin. […] Two days after transduction, 0.5 μg/ml puromycin (Invitrogen) was added to the RPMI media. […] CW-2 cells were provided by the Riken cell line database under MTA, and were maintained in RPMI containing 10% FBS and 1% penicillin/streptomycin.
# [7] = MCF10A HER2 exon 20 mutants, ratio of average IC50
structure (smiles),measurement,setting,value
"C=CC(=O)N1CCC(Oc2cc3c(Nc4ccc(Cl)c(Cl)c4F)ncnc3cc2OC)CC1 [poziotinib, 1-[4-[4-(3,4-dichloro-2-fluoroanilino)-7-methoxyquinazolin-6-yl]oxypiperidin-1-yl]prop-2-en-1-one]",IC50,[1],12 nM
same,increase of cell surface HER2 expression,[2],2 fold
same,mice with complete tumor regression,"[3]; day 15 (best response), poziotinib 2.5 mg/kg, T-DM1 10 mg/kg single dose",0/12
same,"median PFS (mPFS), time to tumor doubling from best response","[3]; poziotinib 2.5 mg/kg 5 days per week, T-DM1 10 mg/kg single IV dose",15 days
same,reduction in tumor volume compared to the vehicle treated group,[4],58%
same,IC50,[5],8.3 nM
same,times more potent than neratinib,[6]; [7],19 times
same,times more potent than tarloxotinib-TKI,[6]; [7],2.6 times
same,"selectivity index (SI, IC50 value mutant/IC50 value WT)",[6]; MCF10A HER2 mutant vs HER2 WT cell lines,0.028
